Results reported in the NIST ThermoML archive (doi:10.1016/j.jct.2014.07.001).
± gives the expanded uncertainty stated by the source.

Columns and labels:
[1] = Drop volume
[2] = xn = mol fraction of the nth substance listed; conditions: Drop volume

CCCC[n+]1ccccc1.F[B-](F)(F)F [1-butylpyridinium tetrafluoroborate]
[1]
Conditions | surface tension liquid-gas [mN/m]
293.15 K | 46.9 ± 0.56
303.15 K | 46.3 ± 0.55
313.15 K | 45.69 ± 0.54
323.15 K | 45.11 ± 0.54

CO [methanol]
[1]
Conditions | surface tension liquid-gas [mN/m]
293.15 K | 22.6 ± 0.26
303.15 K | 21.81 ± 0.25
313.15 K | 20.93 ± 0.24
323.15 K | 20.05 ± 0.23

CCCC[n+]1cccc(C)c1.F[B-](F)(F)F [1-butyl-3-methylpyridinium tetrafluoroborate] + CCO
surface tension liquid-gas [mN/m], [2]
Conditions | 293.15 K | 303.15 K | 313.15 K | 323.15 K
x1 = 0.0279 | 22.56 ± 0.26 | 21.82 ± 0.25 | 21.07 ± 0.25 | 20.3 ± 0.24
x1 = 0.0486 | 22.72 ± 0.26 | 22.04 ± 0.25 | 21.34 ± 0.25 | 20.64 ± 0.24
x1 = 0.0988 | 23.15 ± 0.27 | 22.56 ± 0.26 | 22.03 ± 0.26 | 21.43 ± 0.25
x1 = 0.2016 | 24.19 ± 0.28 | 23.8 ± 0.27 | 23.55 ± 0.27 | 23.17 ± 0.27
x1 = 0.2987 | 25.71 ± 0.3 | 25.43 ± 0.29 | 25.32 ± 0.29 | 25.07 ± 0.29
x1 = 0.3978 | 27.89 ± 0.32 | 27.63 ± 0.32 | 27.56 ± 0.32 | 27.34 ± 0.31
x1 = 0.5001 | 30.59 ± 0.35 | 30.28 ± 0.35 | 30.15 ± 0.35 | 29.91 ± 0.34
x1 = 0.5865 | 33.12 ± 0.38 | 32.73 ± 0.38 | 32.51 ± 0.37 | 32.21 ± 0.37
x1 = 0.6878 | 36.16 ± 0.42 | 35.68 ± 0.41 | 35.34 ± 0.41 | 34.96 ± 0.41
x1 = 0.7851 | 39.08 ± 0.45 | 38.51 ± 0.45 | 38.04 ± 0.44 | 37.59 ± 0.44
x1 = 0.887 | 42.04 ± 0.49 | 41.38 ± 0.49 | 40.81 ± 0.48 | 40.3 ± 0.47
x1 = 0.945 | 43.68 ± 0.52 | 42.99 ± 0.51 | 42.35 ± 0.5 | 41.81 ± 0.5
x1 = 1 | 45.21 ± 0.54 | 44.48 ± 0.53 | 43.8 ± 0.52 | 43.24 ± 0.52

CCCC[n+]1ccc(C)cc1.F[B-](F)(F)F [1-butyl-4-methylpyridinium tetrafluoroborate]
[1]
Conditions | surface tension liquid-gas [mN/m]
293.15 K | 45.82 ± 0.54
303.15 K | 45.09 ± 0.54
313.15 K | 44.41 ± 0.53
323.15 K | 43.71 ± 0.52

CCC[n+]1ccccc1.F[B-](F)(F)F [1-propylpyridinium tetrafluoroborate]
[1]
Conditions | surface tension liquid-gas [mN/m]
293.15 K | 51.29 ± 0.61
303.15 K | 50.51 ± 0.6
313.15 K | 49.79 ± 0.59
323.15 K | 49.03 ± 0.58

CCO [ethanol]
[1]
Conditions | surface tension liquid-gas [mN/m]
293.15 K | 22.28 ± 0.26
303.15 K | 21.49 ± 0.25
313.15 K | 20.66 ± 0.24
323.15 K | 19.84 ± 0.23

CCCC[n+]1cccc(C)c1.F[B-](F)(F)F [1-butyl-3-methylpyridinium tetrafluoroborate]
[1]
Conditions | surface tension liquid-gas [mN/m]
293.15 K | 45.21 ± 0.54
303.15 K | 44.48 ± 0.53
313.15 K | 43.8 ± 0.52
323.15 K | 43.24 ± 0.52

CCCC[n+]1ccccc1.F[B-](F)(F)F [1-butylpyridinium tetrafluoroborate] + CO
surface tension liquid-gas [mN/m], [2]
Conditions | 293.15 K | 303.15 K | 313.15 K | 323.15 K
x1 = 0.025 | 23.33 ± 0.27 | 22.59 ± 0.26 | 21.77 ± 0.25 | 20.96 ± 0.24
x1 = 0.0527 | 24.1 ± 0.28 | 23.41 ± 0.27 | 22.64 ± 0.26 | 21.9 ± 0.25
x1 = 0.0987 | 25.37 ± 0.29 | 24.73 ± 0.28 | 24.04 ± 0.28 | 23.38 ± 0.27
x1 = 0.1944 | 27.89 ± 0.32 | 27.37 ± 0.31 | 26.74 ± 0.3 | 26.23 ± 0.3
x1 = 0.2933 | 30.44 ± 0.34 | 29.92 ± 0.34 | 29.38 ± 0.33 | 28.96 ± 0.33
x1 = 0.3978 | 33.04 ± 0.37 | 32.55 ± 0.37 | 32.07 ± 0.36 | 31.7 ± 0.36
x1 = 0.4934 | 35.37 ± 0.4 | 34.9 ± 0.4 | 34.46 ± 0.39 | 34.11 ± 0.39
x1 = 0.5891 | 37.67 ± 0.43 | 37.21 ± 0.42 | 36.77 ± 0.42 | 36.46 ± 0.42
x1 = 0.6784 | 39.74 ± 0.46 | 39.26 ± 0.45 | 38.82 ± 0.45 | 38.5 ± 0.44
x1 = 0.7864 | 42.16 ± 0.49 | 41.64 ± 0.48 | 41.17 ± 0.48 | 40.81 ± 0.47
x1 = 0.8724 | 44.06 ± 0.52 | 43.5 ± 0.51 | 42.97 ± 0.5 | 42.54 ± 0.5
x1 = 0.93 | 45.33 ± 0.53 | 44.76 ± 0.53 | 44.17 ± 0.52 | 43.69 ± 0.52
x1 = 1 | 46.9 ± 0.56 | 46.3 ± 0.55 | 45.69 ± 0.54 | 45.11 ± 0.54
